The values below are quoted from earlier work in patent US8952001B2, “Amino-heteroaryl derivatives as HCN blockers” (Merck Sharp & Dohme Corp., priority 2009, dated 2015).

Read-outs that look alike come from different tables or passages of the source.

The test system of data set [1] is mechanical allodynia. The note with it: local administration to the sciatic nerve 4 h after surgery in rats; Brennan model.
Another data set deals with allodynia. The conditions noted are these: rat CFA model of inflammatory pain.
The test system of data set [2] is mechanical allodynia. The note with it: intraperitoneal administration; Chung/von Frey.
In another data set the test system is spontaneous pain. The note with it: rat, mild thermal injury model.
The test system of data set [3] is nerve injured myelinated DRG.
Data set [4] deals with ectopic discharges in A-beta and A-delta fibres. The conditions noted are these: without causing conduction block.

For the compound `CCN(c1ccccc1)c1cc(=NC)n(C)c(C)n1.Cl` [ZD 7288], the mechanical allodynia entry in the data set on mechanical allodynia [1] is given as “attenuates mechanical allodynia”; in the data set with mechanical allodynia [2], “dose-dependently reverses mechanical allodynia”. The allodynia result with allodynia was “suppresses allodynia”. The spontaneous pain entry in the data set with spontaneous pain is “blocks spontaneous pain”. The spontaneous activity entry in data set [3] was “reduces spontaneous activity”. For the same compound, in data set [4], the “firing frequency of ectopic discharges” value is reported as “reduced the firing frequency of ectopic discharges”.
